Biological target: AdeV
Experiment: stopped-flow absorption kinetics (substrate-dependent formation of the […] nm chloro-ferryl feature), with freeze-quench Mössbauer and LC–MS turnover of purified enzyme
Format: biochemical, Actinomadura sp. ATCC 39365

SMILES: Nc1ncnc2c1ncn2[C@H]1C[C@H](O)[C@@H](COP(=O)(O)O)O1 [compound 1, 2′-deoxyadenosine monophosphate]
- Kd: ~28 mM

Source: publication PMC12766721, “Regio- and Stereoselective Halogenation by an Iron(II)- and 2‑Oxoglutarate-Dependent Halogenase in the Biosynthesis of Halogenated Nucleosides” (Journal of the American Chemical Society, 2025)
